Source: ChEMBL document CHEMBL3259719, “Discovery and Optimization of Tetramethylpiperidinyl Benzamides as Inhibitors of EZH2” (ACS Med Chem Lett, 2014)

Columns and labels:
[1] = target: T1, Histone-lysine N-methyltransferase EZH2 (Homo sapiens, UniProt Q15910); experiment: Inhibition of wild type EZH2 (unknown origin)
Target sequence in this assay (Q15910 whole entry): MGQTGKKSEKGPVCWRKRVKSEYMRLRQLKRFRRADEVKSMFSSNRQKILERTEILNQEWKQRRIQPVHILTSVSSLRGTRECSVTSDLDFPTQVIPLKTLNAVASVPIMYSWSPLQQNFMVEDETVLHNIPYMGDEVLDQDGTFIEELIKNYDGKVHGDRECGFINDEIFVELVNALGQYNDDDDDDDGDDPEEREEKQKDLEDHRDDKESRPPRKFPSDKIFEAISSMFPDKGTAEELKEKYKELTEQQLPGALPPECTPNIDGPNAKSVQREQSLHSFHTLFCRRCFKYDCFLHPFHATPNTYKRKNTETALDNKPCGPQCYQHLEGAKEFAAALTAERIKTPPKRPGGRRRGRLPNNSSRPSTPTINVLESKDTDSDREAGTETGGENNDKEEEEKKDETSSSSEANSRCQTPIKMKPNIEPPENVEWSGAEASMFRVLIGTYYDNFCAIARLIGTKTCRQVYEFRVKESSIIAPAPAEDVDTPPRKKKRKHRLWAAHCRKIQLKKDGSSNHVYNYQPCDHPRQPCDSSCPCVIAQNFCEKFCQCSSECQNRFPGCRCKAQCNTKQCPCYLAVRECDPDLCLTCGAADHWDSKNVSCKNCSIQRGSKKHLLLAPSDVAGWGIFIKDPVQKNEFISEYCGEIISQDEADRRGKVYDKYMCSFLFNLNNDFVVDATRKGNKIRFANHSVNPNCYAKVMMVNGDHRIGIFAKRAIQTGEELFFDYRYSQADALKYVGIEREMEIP

[2] = target: Histone-lysine N-methyltransferase EZH2 (Homo sapiens, UniProt Q15910, Y641N); experiment: Inhibition of EZH2 Y641N mutant (unknown origin)
[3] = Passive permeability from apical to basolateral side in human Caco2 cells; format: ADME, cell-based; details: Caco-2, read-out: permeability
[4] = Passive permeability from basolateral to apical side in human Caco2 cells; format: ADME, cell-based; details: Caco-2, read-out: permeability
[5] = Efflux ratio of passive permeability in human Caco2 cells; format: ADME, cell-based; details: Caco-2
[6] = target: T1, Histone-lysine N-methyltransferase EZH2; experiment: Inhibition of EZH2 in human HeLa cells assessed as reduction in H3K27me3 level; format: cell-based
Target sequence in this assay (Q15910 whole entry, looked up): as the sequence (Q15910 whole entry) above

[7] = Growth inhibition of human KARPAS422 cells after 4 days by Cell-Titer luminescence assay; format: functional; details: KARPAS-422, 96 h
[8] = Growth inhibition of human KARPAS422 cells after 7 days by Cell-Titer luminescence assay; format: functional; details: KARPAS-422, 168 h
[9] = Growth inhibition of human KARPAS422 cells after 10 days by Cell-Titer luminescence assay; format: functional; details: KARPAS-422, 240 h
[10] = Growth inhibition of human KARPAS422 cells after 14 days by Cell-Titer luminescence assay; format: functional; details: KARPAS-422, 336 h
[11] = Growth inhibition of human KARPAS422 cells after 17 days by Cell-Titer luminescence assay; format: functional; details: KARPAS-422, 408 h

Chain of Histone-lysine N-methyltransferase EZH2 (Homo sapiens, UniProt Q15910, Y641N) (Q15910 whole entry Y641N): as the sequence (Q15910 whole entry) above, with Y641N counted along it

SMILES | IC50 [1] | further results
Cc1cc(C(=O)NC2CC(C)(C)NC(C)(C)C2)cc(C)c1Oc1ccccc1C#N | 51 µM | 
COc1ccccc1Oc1ccc(C(=O)NC2CC(C)(C)NC(C)(C)C2)cc1 | 59 µM | 
Cc1ccc(Oc2ccc(C(=O)NC3CC(C)(C)NC(C)(C)C3)cc2)cc1 | > 80 µM | 
CC1(C)CC(NC(=O)c2ccc(Oc3ccccc3)cc2)CC(C)(C)N1 | 51 µM | 
CC1(C)CC(NC(=O)c2ccc(COc3ccccc3)cc2)CC(C)(C)N1 | 48 µM | 
Cc1ccccc1Oc1ccc(C(=O)NC2CC(C)(C)NC(C)(C)C2)cc1 | 48 µM | 
COc1cc(Oc2ccccc2C#N)ccc1C(=O)NC1CC(C)(C)NC(C)(C)C1 | > 80 µM | 
CC1(C)CC(NC(=O)c2ccc(Oc3ccccc3C#N)cc2Cl)CC(C)(C)N1 | 37 µM | 
CC(c1ccccc1)c1ccc(C(=O)NC2CC(C)(C)NC(C)(C)C2)cc1 (stereo unspecified) | > 80 µM | 
CC1(C)CC(NC(=O)c2ccc(Oc3ccccc3Cl)cc2)CC(C)(C)N1 | 29 µM | 
CC1(C)CC(NC(=O)c2ccc(Oc3ccccc3OCc3ccccc3)cc2)CC(C)(C)N1 | 3.6 µM | 
CC1(C)CC(NC(=O)c2ccc([S+]([O-])c3ccccc3)cc2)CC(C)(C)N1 (stereo unspecified) | > 80 µM | 
CC1(C)CC(NC(=O)c2ccc(Oc3ccccc3C(C)(C)C)cc2)CC(C)(C)N1 | 7.9 µM | 
CC1(C)CC(NC(=O)c2ccc(Oc3ccccc3C#N)cc2)CC(C)(C)N1 | 3.4 µM | 
Cc1cccc(Oc2ccc(C(=O)NC3CC(C)(C)NC(C)(C)C3)cc2)c1 | 61 µM | 
CC1(C)CC(NC(=O)c2ccc(C(O)c3ccccc3)cc2)CC(C)(C)N1 (stereo unspecified) | > 80 µM | 
CC1(C)CC(NC(=O)c2ccc(C(=O)c3ccccc3)cc2)CC(C)(C)N1 | 57 µM | 
CC1(C)CC(NC(=O)c2ccc(Oc3ccccc3C#N)cc2F)CC(C)(C)N1 | 15 µM | 
CN(c1ccccc1)c1ccc(C(=O)NC2CC(C)(C)NC(C)(C)C2)cc1 | > 80 µM | 
CC1(C)CC(NC(=O)c2ccc(Oc3ccccc3C#N)c3ccccc23)CC(C)(C)N1 | 0.84 µM | 
CC1(C)CC(NC(=O)c2ccc(Cc3ccccc3)cc2)CC(C)(C)N1 | > 80 µM | 
CC1(C)CC(NC(=O)c2ccc(Oc3cccc(-c4ccnnc4)c3C#N)c(Cl)c2)CC(C)(C)N1 |  | Papp A→B [3]: 0.19 ×10⁻⁶ cm/s; Papp B→A [4]: 3.29 ×10⁻⁶ cm/s; Activity [6]: 7 µM; GI50 [7]: 70 µM; GI50 [8]: 24.8 µM; GI50 [9]: 23 µM; GI50 [10]: 13.2 µM; GI50 [11]: 9.1 µM
CC1(C)CC(NC(=O)c2ccc(OCc3ccccc3)cc2)CC(C)(C)N1 | > 80 µM | 
CC1(C)CC(NC(=O)c2ccc(S(=O)(=O)c3ccccc3)cc2)CC(C)(C)N1 | > 80 µM | 
CC1(C)CC(NC(=O)c2cc(F)c(Oc3ccccc3C#N)c(Br)c2)CC(C)(C)N1 | 1 µM | 
CC1(C)CC(NC(=O)c2ccc(Nc3ccccc3)cc2)CC(C)(C)N1 | > 80 µM | 
C#Cc1ccccc1Oc1ccc(C(=O)NC2CC(C)(C)NC(C)(C)C2)cc1 | 19 µM | 
CC1(C)CC(NC(=O)c2ccc(Sc3ccccc3)cc2)CC(C)(C)N1 | 33 µM | 
CC1(C)CC(NC(=O)c2ccc(C3(c4ccccc4)CC3)cc2)CC(C)(C)N1 | > 80 µM | 

Second part, led by results:

IC50 [1] | SMILES | further results
2.1 µM | CC1CC(NC(=O)c2ccc(Oc3cccc(-c4ccnnc4)c3C#N)c(Cl)c2)CC(C)N1 (stereo unspecified) | IC50 [2]: 10 µM
0.32 µM | CC1(C)CC(NC(=O)c2ccc(Oc3ccccc3C#N)c(Br)c2)CC(C)(C)N1 | 
0.93 µM | CC1(C)CC(NC(=O)c2ccc(Oc3ccccc3C#N)c(C#N)c2)CC(C)(C)N1 | 
> 80 µM | CC1(C)CC(NC(=O)c2ccc(Oc3ccccc3C#N)c(Cl)c2)C(F)(F)C(C)(C)N1 (stereo unspecified) | IC50 [2]: > 80 µM
1.5 µM | CC1(C)CC(NC(=O)c2ccc(Oc3cccc(-c4ccnnc4)c3C#N)c(Cl)c2)CC(C)(C)O1 | IC50 [2]: 66 µM; Papp A→B [3]: 21.9 ×10⁻⁶ cm/s; Papp B→A [4]: 24.8 ×10⁻⁶ cm/s; efflux ratio [5]: 1.1
0.189 µM | CC1(C)CC(COc2ccc(Oc3cccc(-c4ccncn4)c3C#N)c(Cl)c2)CC(C)(C)N1 | IC50 [2]: 2 µM; Papp A→B [3]: 0.5 ×10⁻⁶ cm/s; Papp B→A [4]: 2.1 ×10⁻⁶ cm/s; efflux ratio [5]: 4.4; Activity [6]: > 15 µM
0.45 µM | CC1(C)CC(NC(=O)c2ccc(Oc3ccccc3C#N)c(Cl)c2)CC(C)(C)N1 | 
0.5 µM | CC1(C)CC(NC(=O)c2ccc(Oc3ccccc3C#N)c(C3CC3)c2)CC(C)(C)N1 | 
0.14 µM | Cc1cccc(Oc2ccc(C(=O)NC3CC(C)(C)NC(C)(C)C3)cc2Cl)c1C#N | IC50 [2]: 1.4 µM
0.024 µM | CC1(C)CC(NC(=O)c2ccc(Oc3cccc(-c4ccncn4)c3C#N)c(Cl)c2)CC(C)(C)N1 | IC50 [2]: 0.13 µM
4.9 µM | CC1(C)CC(NC(=O)c2ccc(Oc3ccccc3C#N)c(Cl)c2)CC(C)(C)N1CCO | IC50 [2]: 62 µM
1 µM | CC1(C)CC(NC(=O)c2ccc(Oc3ccccc3C#N)c(F)c2)CC(C)(C)N1 | 
0.172 µM | CC1(C)CC(OC(=O)c2ccc(Oc3cccc(-c4ccnnc4)c3C#N)c(Cl)c2)CC(C)(C)N1 | IC50 [2]: 2.5 µM; Papp A→B [3]: 20.4 ×10⁻⁶ cm/s; Papp B→A [4]: 47.7 ×10⁻⁶ cm/s; efflux ratio [5]: 2.3
0.92 µM | Cc1cc(C(=O)NC2CC(C)(C)NC(C)(C)C2)ccc1Oc1ccccc1C#N | 
0.14 µM | CC1(C)CC(NC(=O)c2ccc(Oc3cccc(Cl)c3C#N)c(Cl)c2)CC(C)(C)N1 | IC50 [2]: 2.2 µM
0.23 µM | CC1(C)CC(NC(=O)c2ccc(Oc3cccc(-c4cn[nH]c4)c3C#N)c(Cl)c2)CC(C)(C)N1 | IC50 [2]: 4 µM
0.871 µM | CC1CC(NC(=O)c2ccc(Oc3cccc(-c4ccnnc4)c3C#N)c(Cl)c2)CC(C)(C)N1 (stereo unspecified) | IC50 [2]: 10 µM
0.081 µM | CC1(C)CC(NC(=O)c2ccc(Oc3cccc(-c4ccncc4)c3C#N)c(Cl)c2)CC(C)(C)N1 | IC50 [2]: 0.56 µM
